According to patent publication US20260262643A1, “HERBICIDAL BENZOXAZINES” (FMC CORPORATION, priority 2022, published 2026):

Key:
barnyardgrass [1] = test: Test C preemergence; format: in vivo, Echinochloa crusgalli; conditions: for Plant response rating, Barnyardgrass: Preemergence, 125 g ai/ha, 0 to 100 scale, 0 no effect, 100 complete control
Outline: (§1)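 Seeds sown in loam soil–sand blend received a directed preemergence soil spray of test chemical in non-phytotoxic solvent with surfactant; postemergence plants (2–10 cm, one- to two-leaf stage) were sprayed with the same formulation. Greenhouse-held 10 days, then visually rated for injury versus untreated controls, 0 (no effect) to 100 (complete control).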

blackgrass [2] = test: Test C preemergence; format: in vivo, Alopecurus myosuroides; conditions: for Blackgrass plant response rating: 500 g ai/ha, preemergence, 0 to 100 scale (0 no effect, 100 complete control); for Plant response rating, Blackgrass: Preemergence, 125 g ai/ha, 0 to 100 scale, 0 no effect, 100 complete control
Outline: as §1

corn [3] = test: Test C preemergence; format: in vivo, Zea mays; conditions: for Corn plant response rating: 500 g ai/ha, preemergence, 0 to 100 scale (0 no effect, 100 complete control); for Plant response rating, Corn: Preemergence, 125 g ai/ha, 0 to 100 scale, 0 no effect, 100 complete control
Outline: as §1

green foxtail [4] = test: Test C preemergence; format: in vivo, Setaria viridis; conditions: for Foxtail, Green plant response rating: 500 g ai/ha, preemergence, 0 to 100 scale (0 no effect, 100 complete control); for Plant response rating, Foxtail, Green: Preemergence, 125 g ai/ha, 0 to 100 scale, 0 no effect, 100 complete control
Outline: as §1

kochia [5] = test: Test C preemergence; format: in vivo, Bassia scoparia; conditions: for Kochia plant response rating: 500 g ai/ha, preemergence, 0 to 100 scale (0 no effect, 100 complete control); for Plant response rating, Kochia: Preemergence, 125 g ai/ha, 0 to 100 scale, 0 no effect, 100 complete control
Outline: as §1

oat, wild [6] = test: Test C preemergence; format: in vivo, Avena fatua; conditions: for Oat, Wild plant response rating: 500 g ai/ha, preemergence, 0 to 100 scale (0 no effect, 100 complete control); for Plant response rating, Oat, Wild: Preemergence, 125 g ai/ha, 0 to 100 scale, 0 no effect, 100 complete control
Outline: as §1

pigweed, palmer [7] = test: Test C preemergence; format: in vivo, Amaranthus palmeri; conditions: for Pigweed, Palmer plant response rating: 500 g ai/ha, preemergence, 0 to 100 scale (0 no effect, 100 complete control); for Plant response rating, Pigweed, Palmer: Preemergence, 125 g ai/ha, 0 to 100 scale, 0 no effect, 100 complete control
Outline: as §1

ragweed [8] = test: Test C preemergence; format: in vivo, Ambrosia artemisiifolia; conditions: for Ragweed plant response rating: 500 g ai/ha, preemergence, 0 to 100 scale (0 no effect, 100 complete control); for Plant response rating, Ragweed: Preemergence, 125 g ai/ha, 0 to 100 scale, 0 no effect, 100 complete control
Outline: as §1

ryegrass, Italian [9] = test: Test C preemergence; format: in vivo, Lolium multiflorum; conditions: for Ryegrass, Italian plant response rating: 500 g ai/ha, preemergence, 0 to 100 scale (0 no effect, 100 complete control); for Plant response rating, Ryegrass, Italian: Preemergence, 125 g ai/ha, 0 to 100 scale, 0 no effect, 100 complete control
Outline: as §1

soybean [10] = test: Test C preemergence; format: in vivo, Glycine max; conditions: for Soybean plant response rating: 500 g ai/ha, preemergence, 0 to 100 scale (0 no effect, 100 complete control); for Plant response rating, Soybean: Preemergence, 125 g ai/ha, 0 to 100 scale, 0 no effect, 100 complete control
Outline: as §1

wheat [11] = test: Test C preemergence; format: in vivo, Triticum aestivum; conditions: for Wheat plant response rating: 500 g ai/ha, preemergence, 0 to 100 scale (0 no effect, 100 complete control); for Plant response rating, Wheat: Preemergence, 125 g ai/ha, 0 to 100 scale, 0 no effect, 100 complete control
Outline: as §1

barnyardgrass [12] = test: Test C postemergence; format: in vivo, Echinochloa crusgalli; conditions: 10 days, 0 to 100 scale (0 no effect, 100 complete control)
Outline: as §1

blackgrass [13] = test: Test C postemergence; format: in vivo, Alopecurus myosuroides; conditions: 10 days, 0 to 100 scale (0 no effect, 100 complete control)
Outline: as §1

corn [14] = test: Test C postemergence; format: in vivo, Zea mays; conditions: 10 days, 0 to 100 scale (0 no effect, 100 complete control)
Outline: as §1

green foxtail [15] = test: Test C postemergence; format: in vivo, Setaria viridis; conditions: 10 days, 0 to 100 scale (0 no effect, 100 complete control)
Outline: as §1

kochia [16] = test: Test C postemergence; format: in vivo, Bassia scoparia; conditions: 10 days, 0 to 100 scale (0 no effect, 100 complete control)
Outline: as §1

oat, wild [17] = test: Test C postemergence; format: in vivo, Avena fatua; conditions: 10 days, 0 to 100 scale (0 no effect, 100 complete control)
Outline: as §1

pigweed, palmer [18] = test: Test C postemergence; format: in vivo, Amaranthus palmeri; conditions: 10 days, 0 to 100 scale (0 no effect, 100 complete control)
Outline: as §1

ragweed [19] = test: Test C postemergence; format: in vivo, Ambrosia artemisiifolia; conditions: 10 days, 0 to 100 scale (0 no effect, 100 complete control)
Outline: as §1

ryegrass, Italian [20] = test: Test C postemergence; format: in vivo, Lolium multiflorum; conditions: 10 days, 0 to 100 scale (0 no effect, 100 complete control)
Outline: as §1

soybean [21] = test: Test C postemergence; format: in vivo, Glycine max; conditions: 10 days, 0 to 100 scale (0 no effect, 100 complete control)
Outline: as §1

wheat [22] = test: Test C postemergence; format: in vivo, Triticum aestivum; conditions: 10 days, 0 to 100 scale (0 no effect, 100 complete control)
Outline: as §1

galium = test: Test C postemergence; format: in vivo, Galium aparine; conditions: 10 days, 0 to 100 scale (0 no effect, 100 complete control)
Outline: as §1

horseweed = test: Test C postemergence; format: in vivo, Erigeron canadensis; conditions: 10 days, 0 to 100 scale (0 no effect, 100 complete control)
Outline: as §1

barnyardgrass [23] = test: Test D flooded paddy test; format: in vivo, Echinochloa crus-galli; conditions: 250 g ai/ha, applied to paddy water, visual rating after 13 to 14 days, scale 0 to 100 (0 no effect, 100 complete control)
Outline: (§2)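 Plants grown to the 2-leaf stage; pots flooded to 3 cm above soil at treatment and held at that depth throughout. Test compounds applied directly to the paddy water. After 13 to 14 days in a greenhouse, response was rated visually versus controls on a 0 (no effect) to 100 (complete control) scale.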

ducksalad = test: Test D flooded paddy test; format: in vivo, Heteranthera limosa; conditions: 250 g ai/ha, applied to paddy water, visual rating after 13 to 14 days, scale 0 to 100 (0 no effect, 100 complete control)
Outline: as §2

rice = test: Test D flooded paddy test; format: in vivo, Oryza sativa; conditions: 250 g ai/ha, applied to paddy water, visual rating after 13 to 14 days, scale 0 to 100 (0 no effect, 100 complete control)
Outline: as §2

sedge, umbrella = test: Test D flooded paddy test; format: in vivo, Cyperus difformis; conditions: 250 g ai/ha, applied to paddy water, visual rating after 13 to 14 days, scale 0 to 100 (0 no effect, 100 complete control)
Outline: as §2

CSc1ccc(-n2cnc(C(C)C)n2)cc1C(=O)N1C[C@H](C)Oc2c(Cl)cccc21 [Compound 391]
100: Foxtail, Green plant response rating (green foxtail [4]) | Plant response rating, Foxtail, Green (green foxtail [4]) | Kochia plant response rating (kochia [5]) | Pigweed, Palmer plant response rating (pigweed, palmer [7]) | Plant response rating, Pigweed, Palmer (pigweed, palmer [7]) | Plant response rating, Kochia (kochia [16]; 500 g ai/ha, postemergence) | Plant response rating, Kochia (kochia [16]; Postemergence, 125 g ai/ha) | Plant response rating, Pigweed, Palmer (pigweed, palmer [18]; 500 g ai/ha, postemergence) | Plant response rating, Ryegrass, Italian (ryegrass, Italian [20]; 500 g ai/ha, postemergence) | Plant response rating, Soybean (soybean [21]; 500 g ai/ha, postemergence) | Plant response rating, Soybean (soybean [21]; Postemergence, 125 g ai/ha) | Plant response rating, Galium (galium; 500 g ai/ha, postemergence) | Plant response rating, Galium (galium; Postemergence, 125 g ai/ha)
90: Plant response rating, Kochia (kochia [5]) | Ryegrass, Italian plant response rating (ryegrass, Italian [9]) | Soybean plant response rating (soybean [10]) | Plant response rating, Pigweed, Palmer (pigweed, palmer [18]; Postemergence, 125 g ai/ha) | Plant response rating, Ragweed (ragweed [19]; 500 g ai/ha, postemergence)
45: Plant response rating, Sedge, Umbrella (Flood) (sedge, umbrella)
35: Plant response rating, Ducksalad (Flood) (ducksalad)
70: Plant response rating, Foxtail, Green (green foxtail [15]; Postemergence, 125 g ai/ha)
80: Blackgrass plant response rating (blackgrass [2]) | Oat, Wild plant response rating (oat, wild [6]) | Plant response rating, Blackgrass (blackgrass [13]; 500 g ai/ha, postemergence) | Plant response rating, Foxtail, Green (green foxtail [15]; 500 g ai/ha, postemergence) | Plant response rating, Oat, Wild (oat, wild [17]; 500 g ai/ha, postemergence)
20: Corn plant response rating (corn [3]) | Plant response rating, Corn (corn [3]) | Plant response rating, Ryegrass, Italian (ryegrass, Italian [9])
60: Plant response rating, Barnyardgrass (barnyardgrass [1]) | Ragweed plant response rating (ragweed [8]) | Plant response rating, Barnyardgrass (barnyardgrass [12]; 500 g ai/ha, postemergence) | Plant response rating, Blackgrass (blackgrass [13]; Postemergence, 125 g ai/ha) | Plant response rating, Corn (corn [14]; 500 g ai/ha, postemergence) | Plant response rating, Corn (corn [14]; Postemergence, 125 g ai/ha) | Plant response rating, Ragweed (ragweed [19]; Postemergence, 125 g ai/ha) | Plant response rating, Horseweed (horseweed; 500 g ai/ha, postemergence)
10: Plant response rating, Ragweed (ragweed [8]) | Plant response rating, Barnyardgrass (Flood) (barnyardgrass [23])
0: Plant response rating, Wheat (wheat [11]) | Plant response rating, Horseweed (horseweed; Postemergence, 125 g ai/ha) | Plant response rating, Rice (Flood) (rice)
30: Plant response rating, Oat, Wild (oat, wild [6]) | Wheat plant response rating (wheat [11]) | Plant response rating, Oat, Wild (oat, wild [17]; Postemergence, 125 g ai/ha) | Plant response rating, Wheat (wheat [22]; Postemergence, 125 g ai/ha)
40: Plant response rating, Barnyardgrass (barnyardgrass [12]; Postemergence, 125 g ai/ha) | Plant response rating, Wheat (wheat [22]; 500 g ai/ha, postemergence)
50: Plant response rating, Blackgrass (blackgrass [2]) | Plant response rating, Soybean (soybean [10]) | Plant response rating, Ryegrass, Italian (ryegrass, Italian [20]; Postemergence, 125 g ai/ha)

Cc1cccc2c1O[C@@H](C)CN2C(=O)c1cc(-n2cnc(C(C)C)n2)cc2c1CCO2 [Compound 392]
80: Blackgrass plant response rating (blackgrass [2]) | Ragweed plant response rating (ragweed [8]) | Plant response rating, Ragweed (ragweed [8]) | Plant response rating, Barnyardgrass (barnyardgrass [12]; 500 g ai/ha, postemergence) | Plant response rating, Blackgrass (blackgrass [13]; Postemergence, 125 g ai/ha) | Plant response rating, Corn (corn [14]; 500 g ai/ha, postemergence) | Plant response rating, Ryegrass, Italian (ryegrass, Italian [20]; Postemergence, 125 g ai/ha)
0: Plant response rating, Rice (Flood) (rice)
100: Barnyardgrass plant response rating (barnyardgrass [1]; 500 g ai/ha, preemergence, 0 to 100 scale (0 no effect, 100 complete control)) | Foxtail, Green plant response rating (green foxtail [4]) | Plant response rating, Foxtail, Green (green foxtail [4]) | Pigweed, Palmer plant response rating (pigweed, palmer [7]) | Plant response rating, Pigweed, Palmer (pigweed, palmer [7]) | Ryegrass, Italian plant response rating (ryegrass, Italian [9]) | Soybean plant response rating (soybean [10]) | Plant response rating, Pigweed, Palmer (pigweed, palmer [18]; 500 g ai/ha, postemergence) | Plant response rating, Pigweed, Palmer (pigweed, palmer [18]; Postemergence, 125 g ai/ha) | Plant response rating, Ryegrass, Italian (ryegrass, Italian [20]; 500 g ai/ha, postemergence) | Plant response rating, Soybean (soybean [21]; 500 g ai/ha, postemergence) | Plant response rating, Soybean (soybean [21]; Postemergence, 125 g ai/ha) | Plant response rating, Galium (galium; 500 g ai/ha, postemergence) | Plant response rating, Galium (galium; Postemergence, 125 g ai/ha)
65: Plant response rating, Ducksalad (Flood) (ducksalad) | Plant response rating, Sedge, Umbrella (Flood) (sedge, umbrella)
30: Plant response rating, Corn (corn [3]) | Plant response rating, Corn (corn [14]; Postemergence, 125 g ai/ha)
50: Plant response rating, Oat, Wild (oat, wild [6]) | Plant response rating, Barnyardgrass (barnyardgrass [12]; Postemergence, 125 g ai/ha) | Plant response rating, Wheat (wheat [22]; Postemergence, 125 g ai/ha)
60: Wheat plant response rating (wheat [11]) | Plant response rating, Foxtail, Green (green foxtail [15]; Postemergence, 125 g ai/ha) | Plant response rating, Wheat (wheat [22]; 500 g ai/ha, postemergence) | Plant response rating, Horseweed (horseweed; Postemergence, 125 g ai/ha)
70: Plant response rating, Blackgrass (blackgrass [2]) | Corn plant response rating (corn [3]) | Plant response rating, Oat, Wild (oat, wild [17]; Postemergence, 125 g ai/ha)
40: Plant response rating, Barnyardgrass (Flood) (barnyardgrass [23])
20: Plant response rating, Wheat (wheat [11])
90: Plant response rating, Barnyardgrass (barnyardgrass [1]) | Kochia plant response rating (kochia [5]) | Plant response rating, Kochia (kochia [5]) | Oat, Wild plant response rating (oat, wild [6]) | Plant response rating, Ryegrass, Italian (ryegrass, Italian [9]) | Plant response rating, Soybean (soybean [10]) | Plant response rating, Blackgrass (blackgrass [13]; 500 g ai/ha, postemergence) | Plant response rating, Foxtail, Green (green foxtail [15]; 500 g ai/ha, postemergence) | Plant response rating, Kochia (kochia [16]; 500 g ai/ha, postemergence) | Plant response rating, Kochia (kochia [16]; Postemergence, 125 g ai/ha) | Plant response rating, Oat, Wild (oat, wild [17]; 500 g ai/ha, postemergence) | Plant response rating, Ragweed (ragweed [19]; 500 g ai/ha, postemergence) | Plant response rating, Ragweed (ragweed [19]; Postemergence, 125 g ai/ha) | Plant response rating, Horseweed (horseweed; 500 g ai/ha, postemergence)
